{"source": "paper PMC2955773", "about": "(ACS chemical biology, 2010)", "key": {"[1]": {"test_system": "DLD1 cells", "assay": "ECM degradation assay", "format": "cell-based, human", "settings": "SrcYF-transfected DLD1 cells, 10 μM, 1.5hrs"}, "[2]": {"test_system": "mitochondrial ROS generation in DLD1", "assay": "Mitochondrial ROS generation by MitoSox dye", "format": "cell-based, human", "settings": "compared to DMSO"}, "[3]": {"biological_target": "T1, Nox2 (Homo sapiens, UniProt P04839)", "T1 sequence (P04839 2-570 limits assumed)": "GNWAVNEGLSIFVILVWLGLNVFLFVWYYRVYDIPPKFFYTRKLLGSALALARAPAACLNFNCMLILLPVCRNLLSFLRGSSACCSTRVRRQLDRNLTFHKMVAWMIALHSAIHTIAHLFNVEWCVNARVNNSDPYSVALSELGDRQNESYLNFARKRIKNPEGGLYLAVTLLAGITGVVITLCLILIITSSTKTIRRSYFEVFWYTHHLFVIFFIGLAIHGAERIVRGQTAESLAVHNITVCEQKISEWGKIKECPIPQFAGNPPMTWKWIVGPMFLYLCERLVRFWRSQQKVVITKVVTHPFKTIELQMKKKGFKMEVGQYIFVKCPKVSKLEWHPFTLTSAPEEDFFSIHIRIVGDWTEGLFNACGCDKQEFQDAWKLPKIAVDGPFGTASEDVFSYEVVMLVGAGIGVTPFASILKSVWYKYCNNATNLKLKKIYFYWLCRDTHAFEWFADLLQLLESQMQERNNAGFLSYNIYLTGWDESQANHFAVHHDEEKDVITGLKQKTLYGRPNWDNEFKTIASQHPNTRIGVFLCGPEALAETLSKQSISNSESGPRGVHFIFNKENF", "T1 sequence (P13498 2-195 partner limits assumed)": "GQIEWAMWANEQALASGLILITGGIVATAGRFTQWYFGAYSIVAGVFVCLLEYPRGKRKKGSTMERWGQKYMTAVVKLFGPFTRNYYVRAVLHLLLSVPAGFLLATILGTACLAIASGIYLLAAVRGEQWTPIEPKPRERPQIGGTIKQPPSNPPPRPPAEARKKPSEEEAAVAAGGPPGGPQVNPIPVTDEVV", "assay": "Superoxide production in fMLP-treated human neutrophils", "format": "cell-based", "settings": "10 μM"}, "[4]": {"biological_target": "T1, Nox2", "assay": "Nox2 cell-free system", "format": "biochemical", "settings": "10 μM"}, "[5]": {"biological_target": "T2, serotonin 5-HT2C receptor (Homo sapiens, UniProt P28335)", "T2 sequence (P28335 33-458)": "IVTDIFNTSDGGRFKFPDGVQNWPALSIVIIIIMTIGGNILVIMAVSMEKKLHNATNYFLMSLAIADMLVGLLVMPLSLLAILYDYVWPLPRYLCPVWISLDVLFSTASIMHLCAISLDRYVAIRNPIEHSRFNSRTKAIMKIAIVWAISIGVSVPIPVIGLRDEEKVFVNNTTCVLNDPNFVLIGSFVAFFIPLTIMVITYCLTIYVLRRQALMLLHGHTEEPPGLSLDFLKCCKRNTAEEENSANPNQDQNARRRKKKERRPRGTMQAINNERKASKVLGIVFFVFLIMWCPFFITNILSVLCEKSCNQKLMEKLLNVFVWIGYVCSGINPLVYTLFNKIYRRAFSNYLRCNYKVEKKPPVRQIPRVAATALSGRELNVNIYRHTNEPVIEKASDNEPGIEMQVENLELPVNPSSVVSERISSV", "assay": "Competitive binding assay", "set-up": "species or system human or rodent"}, "[6]": {"test_system": "ROS production", "assay": "ROS production measured by carboxy-H2-DCFDA staining", "format": "cell-based", "settings": "second method of ROS detection"}, "[7]": {"biological_target": "T3, Nox1 (Homo sapiens, UniProt Q9Y5S8)", "T3 sequence (Q9Y5S8 1-564)": "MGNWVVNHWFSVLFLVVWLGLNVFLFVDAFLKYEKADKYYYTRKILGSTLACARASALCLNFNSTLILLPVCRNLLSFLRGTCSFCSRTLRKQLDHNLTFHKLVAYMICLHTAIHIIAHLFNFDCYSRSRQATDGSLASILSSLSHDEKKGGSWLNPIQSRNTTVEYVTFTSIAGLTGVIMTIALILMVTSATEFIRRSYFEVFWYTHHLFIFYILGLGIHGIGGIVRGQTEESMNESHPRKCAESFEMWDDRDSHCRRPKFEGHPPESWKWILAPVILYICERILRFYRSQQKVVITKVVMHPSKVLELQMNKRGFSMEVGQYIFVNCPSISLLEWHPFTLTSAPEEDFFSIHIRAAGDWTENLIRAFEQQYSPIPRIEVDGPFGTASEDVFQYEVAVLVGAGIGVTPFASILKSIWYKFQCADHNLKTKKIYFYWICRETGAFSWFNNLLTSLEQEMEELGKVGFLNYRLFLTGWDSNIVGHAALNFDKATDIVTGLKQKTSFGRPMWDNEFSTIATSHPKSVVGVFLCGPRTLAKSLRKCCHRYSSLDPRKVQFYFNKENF", "T3 sequence (P13498 2-195 partner limits assumed)": "T1 sequence (P13498 2-195 partner limits assumed)", "assay": "HEK293-Nox1 reconstituted cell system, ROS generation by CL assay", "settings": "HEK293-Nox1 reconstituted cell system treated with ML171"}, "[8]": {"biological_target": "serotonin 5-HT2B receptor (Homo sapiens, UniProt P41595)", "sequence (P41595 whole entry)": "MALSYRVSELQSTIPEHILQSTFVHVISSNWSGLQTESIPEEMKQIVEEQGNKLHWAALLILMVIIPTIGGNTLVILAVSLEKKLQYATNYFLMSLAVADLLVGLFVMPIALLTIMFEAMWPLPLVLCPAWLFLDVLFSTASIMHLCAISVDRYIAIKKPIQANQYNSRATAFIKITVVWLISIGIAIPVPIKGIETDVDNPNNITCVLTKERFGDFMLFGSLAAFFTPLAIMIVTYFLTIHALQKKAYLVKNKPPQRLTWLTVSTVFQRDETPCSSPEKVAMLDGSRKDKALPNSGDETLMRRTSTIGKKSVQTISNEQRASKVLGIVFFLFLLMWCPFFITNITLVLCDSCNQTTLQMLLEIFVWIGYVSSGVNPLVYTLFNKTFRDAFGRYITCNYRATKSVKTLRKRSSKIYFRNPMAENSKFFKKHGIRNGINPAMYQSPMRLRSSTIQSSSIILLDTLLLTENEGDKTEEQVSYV", "assay": "Competitive binding assay", "set-up": "species or system human or rodent"}, "[9]": {"biological_target": "T4, adrenergic alpha2C receptor (Homo sapiens, UniProt P18825)", "T4 sequence (P18825 1-462)": "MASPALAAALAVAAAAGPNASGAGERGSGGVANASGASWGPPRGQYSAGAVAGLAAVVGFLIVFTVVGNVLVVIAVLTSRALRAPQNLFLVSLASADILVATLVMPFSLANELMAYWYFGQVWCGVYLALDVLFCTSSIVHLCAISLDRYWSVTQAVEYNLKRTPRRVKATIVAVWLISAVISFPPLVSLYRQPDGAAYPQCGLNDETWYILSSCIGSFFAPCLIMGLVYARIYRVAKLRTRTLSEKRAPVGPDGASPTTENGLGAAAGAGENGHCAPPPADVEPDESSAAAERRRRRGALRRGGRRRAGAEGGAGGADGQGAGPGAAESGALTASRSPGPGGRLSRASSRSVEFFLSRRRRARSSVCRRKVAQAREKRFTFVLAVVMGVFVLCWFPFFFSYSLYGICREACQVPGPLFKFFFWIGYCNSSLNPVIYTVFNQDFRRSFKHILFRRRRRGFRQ", "assay": "Competitive binding assay", "set-up": "species or system human or rodent"}, "[10]": {"test_system": "G-protein coupled receptors (GPCRs), channels and transporters expressed in the CNS", "assay": "Competitive binding to a large battery of CNS receptors", "set-up": "species or system human or rodent"}, "[11]": {"biological_target": "xanthine oxidase (XO) (Bos taurus, UniProt P80457)", "sequence (P80457 2-1332)": "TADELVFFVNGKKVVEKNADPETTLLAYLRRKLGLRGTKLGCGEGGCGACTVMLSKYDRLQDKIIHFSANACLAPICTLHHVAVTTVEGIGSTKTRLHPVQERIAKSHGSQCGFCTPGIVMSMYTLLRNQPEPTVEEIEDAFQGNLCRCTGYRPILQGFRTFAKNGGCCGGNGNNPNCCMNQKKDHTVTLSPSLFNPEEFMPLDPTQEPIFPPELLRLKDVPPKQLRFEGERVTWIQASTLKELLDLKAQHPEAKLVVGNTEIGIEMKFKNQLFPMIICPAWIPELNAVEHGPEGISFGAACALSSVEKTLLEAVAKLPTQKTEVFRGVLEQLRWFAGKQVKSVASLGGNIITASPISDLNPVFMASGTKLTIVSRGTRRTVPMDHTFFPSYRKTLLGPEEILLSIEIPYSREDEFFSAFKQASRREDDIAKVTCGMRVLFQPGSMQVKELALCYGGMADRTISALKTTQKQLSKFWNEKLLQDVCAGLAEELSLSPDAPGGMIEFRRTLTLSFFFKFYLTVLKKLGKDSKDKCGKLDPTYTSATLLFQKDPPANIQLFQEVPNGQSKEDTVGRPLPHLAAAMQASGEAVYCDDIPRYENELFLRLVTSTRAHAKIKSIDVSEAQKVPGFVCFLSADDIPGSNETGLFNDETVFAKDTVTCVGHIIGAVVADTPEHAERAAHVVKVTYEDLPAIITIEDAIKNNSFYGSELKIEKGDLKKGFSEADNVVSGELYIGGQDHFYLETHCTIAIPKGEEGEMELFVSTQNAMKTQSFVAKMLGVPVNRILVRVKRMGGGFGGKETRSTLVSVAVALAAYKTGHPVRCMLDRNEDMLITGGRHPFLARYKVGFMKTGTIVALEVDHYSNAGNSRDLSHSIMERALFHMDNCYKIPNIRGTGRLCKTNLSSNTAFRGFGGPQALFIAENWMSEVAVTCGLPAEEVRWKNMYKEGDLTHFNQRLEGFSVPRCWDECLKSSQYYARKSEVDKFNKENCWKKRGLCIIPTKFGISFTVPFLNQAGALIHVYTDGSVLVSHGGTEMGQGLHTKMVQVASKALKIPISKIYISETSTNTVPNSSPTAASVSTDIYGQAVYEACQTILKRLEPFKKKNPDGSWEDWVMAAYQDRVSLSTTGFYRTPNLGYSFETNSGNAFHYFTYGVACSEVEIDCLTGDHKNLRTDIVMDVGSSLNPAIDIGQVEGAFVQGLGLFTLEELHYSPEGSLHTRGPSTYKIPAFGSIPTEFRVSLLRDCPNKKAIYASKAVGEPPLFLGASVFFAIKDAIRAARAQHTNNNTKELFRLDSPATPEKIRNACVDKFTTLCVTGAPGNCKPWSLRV", "assay": "Xanthine oxidase specificity assay", "format": "biochemical"}, "[12]": {"biological_target": "Rac1 (Homo sapiens, UniProt P63000)", "assay": "Rac loading assay", "format": "biochemical", "settings": "recombinant Rac1, compared with Mg2+ positive control"}, "[13]": {"test_system": "DLD1 cells", "assay": "SrcYF-induced invadopodia formation", "format": "cell-based, human", "settings": "SrcYF-transfected DLD1 cells, treated 1hr; ML171 10 μM"}, "[14]": {"biological_target": "T3, Nox1", "assay": "Luminol-based chemiluminescence", "format": "cell-based", "settings": "for ability to block Nox1-dependent ROS generation: HT29 cells, luminol-based CL assay"}, "[15]": {"settings": "secondary concentration-response analysis"}, "[16]": {"settings": "HT29 cell-based assay, ROS generation, SAR study"}, "[17]": {"settings": "read-out: Micromolar IC50 HT29 Assay, HT29 cell-based assay, ROS generation, SAR study"}}, "note": "pIC50: −log10 of the molar value. Read-outs that look alike come from different tables or passages of the source."}
{"smiles": "c1ccc2c(c1)[I+]c1ccccc1-2", "note": "[DPI, diphenylene iodonium, reference compound]", "values": [{"measurement": "ECM degradation", "setting": "[1]", "result": "blocked this effect"}, {"measurement": "mitochondrial ROS generation", "setting": "[2]", "result": "slightly reduced ROS generation in mitochondria"}, {"measurement": "superoxide formation", "setting": "[3]", "result": "dramatically inhibit superoxide formation"}, {"measurement": "superoxide formation", "setting": "[4]", "result": "dramatically inhibit superoxide formation"}]}
{"smiles": "CC(=O)c1ccc2c(c1)Nc1ccccc1S2", "note": "[ML171, 2-acetylphenothiazine]", "values": [{"measurement": "ECM degradation", "setting": "[1]", "result": "strongly reduced the ability of SrcYF-transfected DLD1 cells to degrade the ECM"}, {"measurement": "% of inhibition", "setting": "[5]; primary binding assay", "result": "> 60", "unit": "%"}, {"measurement": "Ki", "setting": "[5]; [15]", "result": "micromolar range"}, {"measurement": "mitochondrial ROS generation", "setting": "[2]", "result": "did not decrease mitochondrial ROS generation"}, {"measurement": "ROS production by carboxy-H2-DCFDA staining", "setting": "[6]", "result": "efficiently blocks ROS production"}, {"measurement": "rescue of ROS generation by over-expression of Nox1, NoxA1 or NoxO1", "setting": "[7]", "result": "only increasing over-expression of Nox1 could rescue ROS generation"}, {"measurement": "% of inhibition", "setting": "[8]; primary binding assay", "result": "> 60", "unit": "%"}, {"measurement": "Ki", "setting": "[8]; [15]", "result": "micromolar range"}, {"measurement": "% of inhibition", "setting": "[9]; primary binding assay", "result": "> 60", "unit": "%"}, {"measurement": "Ki", "setting": "[9]; [15]", "result": "micromolar range"}, {"measurement": "binding to receptors of the battery", "setting": "[10]", "result": "did not significantly bind most of the receptors tested"}, {"measurement": "inhibition of XO-dependent ROS generation", "setting": "[11]", "result": "unable to inhibit XO-dependent ROS generation"}, {"measurement": "block of Rac1 loading with GTP", "setting": "[12]", "result": "only marginally block Rac1 loading"}, {"measurement": "invadopodia formation", "setting": "[13]", "result": "strongly decreased SrcYF-induced invadopodia formation"}]}
{"smiles": "OCCN1CCN(CCCN2c3ccccc3Sc3ccc(Cl)cc32)CC1", "note": "[SR-01000000137-4]", "values": [{"measurement": "Micromolar IC50 HT29 Assay", "setting": "[14]; [16]", "result": "Inactive (AID 2808)"}]}
{"smiles": "CN(C)CCCN1c2ccccc2Sc2ccc(C(F)(F)F)cc21", "note": "[SR-01000000224-4, Triflupromazine, reference compound]", "values": [{"measurement": "Micromolar IC50 HT29 Assay", "setting": "[14]; [16]", "result": "Inactive (AID 2808)"}]}
{"smiles": "CN(C)CCCN1c2ccccc2Sc2ccccc21", "note": "[SR-01000000228-4, promazine, reference compound]", "values": [{"measurement": "Micromolar IC50 HT29 Assay", "setting": "[14]; [16]", "result": "Inactive (AID 2808)"}]}
{"smiles": "CN1CCN(CCCN2c3ccccc3Sc3ccc(C(F)(F)F)cc32)CC1.Cl.Cl", "note": "[SR-01000003020-6]", "values": [{"measurement": "Micromolar IC50 HT29 Assay", "setting": "[14]; [16]", "result": "Inactive (AID 2808)"}]}
{"smiles": "Cl.Cl.OCCN1CCN(CCCN2c3ccccc3Sc3ccc(C(F)(F)F)cc32)CC1", "note": "[SR-01000003048-5, Fluorophenazine, reference compound]", "values": [{"measurement": "Micromolar IC50 HT29 Assay", "setting": "[14]; [16]", "result": "Inactive (AID 2808)"}]}
{"smiles": "COc1ccc2c(c1)Sc1ccccc1N2", "note": "[SR-01000025134-3]", "values": [{"measurement": "pIC50", "setting": "[14]; [17]", "result": 6.03}]}
{"smiles": "CCOC(=O)Nc1ccc2c(c1)Nc1ccccc1S2", "note": "[SR-01000477673-3]", "values": [{"measurement": "pIC50", "setting": "[14]; [17]", "result": 6.04}]}
{"smiles": "Clc1ccc2c(c1)Nc1ccccc1S2", "note": "[SR-01000596948-2]", "values": [{"measurement": "pIC50", "setting": "[14]; [17]", "result": 6.60}]}
{"smiles": "c1ccc2c(c1)Nc1ccccc1S2", "note": "[SR-01000721844-3]", "values": [{"measurement": "pIC50", "setting": "[14]; [17]", "result": 6.43}]}
{"smiles": "O=[N+]([O-])c1ccc2c(c1)Sc1ccc(C(F)(F)F)cc1N2", "note": "[SR-03000000695-1]", "values": [{"measurement": "pIC50", "setting": "[14]; [17]", "result": 5.85}]}
{"smiles": "COc1ccc2c(c1)Sc1ccc(Cl)cc1N2", "note": "[SR-03000000698-1]", "values": [{"measurement": "pIC50", "setting": "[14]; [17]", "result": 6.75}]}
{"smiles": "Cc1ccc(S(=O)(=O)c2ccc3c(c2)Sc2ccc(Cl)cc2N3)cc1", "note": "[SR-03000000707-1]", "values": [{"measurement": "pIC50", "setting": "[14]; [17]", "result": 5.28}]}
{"smiles": "CC(O)c1ccc2c(c1)Nc1ccccc1S2", "note": "(stereo not drawn) [SR-03000000760-1]", "values": [{"measurement": "pIC50", "setting": "[14]; [17]", "result": 6.44}]}
{"smiles": "CN(C)CCCN1c2ccccc2Sc2ccc(Cl)cc21", "note": "[chlorpromazine, reference compound]", "values": [{"measurement": "pIC50", "setting": "[14]", "result": "< 4.30"}, {"measurement": "Micromolar IC50 HT29 Assay", "setting": "[14]; [16]", "result": "Inactive (AID 2808)"}, {"measurement": "invadopodia formation", "setting": "[13]", "result": "did not observe a decreased ability of DLD1 cells to form cortactin-positive, F-actin-rich invadopodia"}]}
{"smiles": "OCCN1CCN(CCCN2c3ccccc3Sc3ccc(Cl)cc32)CC1", "note": "[perphenazine, reference compound]", "values": [{"measurement": "ability to block Nox1-dependent ROS generation", "setting": "[14]", "result": "unable to block Nox1-dependent ROS generation"}]}
{"smiles": "CN1CCN(CCCN2c3ccccc3Sc3ccc(C(F)(F)F)cc32)CC1", "note": "[trifluperazine, reference compound]", "values": [{"measurement": "ability to block Nox1-dependent ROS generation", "setting": "[14]", "result": "unable to block Nox1-dependent ROS generation"}]}
